According to ChEMBL document CHEMBL1157733, “Isolation, structure, and bioactivities of abiesadines A-Y, 25 new diterpenes from Abies georgei Orr” (Bioorg Med Chem, 2010):

Tests used:
[1] = Antiproliferative activity against human QGY7703 cells; assay type: functional, cell-based; settings: QGY-7703
RAW264.7 = assay: Antiinflammatory activity in mouse RAW264.7 cells assessed as inhibition of LPS-induced NO release; assay type: functional, cell-based
[2] = Inhibition of TNF-alpha-induced NF-kappaB activity in human pNF-kappaB-luc-293 cells; assay type: cell-based; settings: HEK293
LoVo = assay: Antiproliferative activity against human LoVo cells; assay type: functional, cell-based

IC50 (RAW264.7): > 100 µg/mL
IC50 [2]: > 100 µg/mL
IC50 (LoVo): > 25 µg/mL
Compound: CO[C@@H]1C[C@H]2[C@](C)(COC(=O)CCC(=O)O)CCC[C@]2(C)c2ccc(C(C)C)cc21 [ABIESADINE G]
IC50 [1]: > 25 µg/mL
